# In publication PMC12516686, “Design of 2‑Aminobenzothiazole Derivatives Targeting Trypanosomatid PTR1 by a Multidisciplinary Fragment Hybridization Approach” (Journal of Medicinal Chemistry, 2025):
# Where two headings read alike, the source gives them in different places.
# Experiments:
# CYP1A2 = target: T1, CYP1A2 (Homo sapiens, UniProt P05177); assay: Cytochrome P450 assay (P450-Glo), isoform 1A2; format: in vitro ADME
# T1 construct: purchased Promega; host or cells: baculovirus-infected insect cells
# T1 sequence (P05177 1-516): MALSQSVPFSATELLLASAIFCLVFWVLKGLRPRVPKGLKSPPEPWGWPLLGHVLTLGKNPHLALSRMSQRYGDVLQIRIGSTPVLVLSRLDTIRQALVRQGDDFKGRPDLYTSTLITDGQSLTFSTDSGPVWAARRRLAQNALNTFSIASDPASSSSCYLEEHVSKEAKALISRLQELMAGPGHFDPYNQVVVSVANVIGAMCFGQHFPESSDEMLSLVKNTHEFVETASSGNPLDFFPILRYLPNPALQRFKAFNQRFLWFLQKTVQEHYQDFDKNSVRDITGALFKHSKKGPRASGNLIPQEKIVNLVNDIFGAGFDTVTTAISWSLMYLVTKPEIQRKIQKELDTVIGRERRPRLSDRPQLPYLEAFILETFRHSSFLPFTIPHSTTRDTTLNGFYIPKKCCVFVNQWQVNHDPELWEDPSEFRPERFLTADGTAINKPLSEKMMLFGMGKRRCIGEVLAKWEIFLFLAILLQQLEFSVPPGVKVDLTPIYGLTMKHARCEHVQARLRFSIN
# Source text: (§1) 3A4. The Promega P450-Glo assay platform was used with microsomal preparations of
# (§2) cytochrome P450s from baculovirus-infected insect cells. […]
# 786-O cell line = assay: Mitochondrial toxicity (MitoTracker Red uptake, high content imaging); format: cell-based; conditions: Homo sapiens, 786-0; read-out: mitotox. IC50
# Source text: Mitochondrial toxicity caused by the synthesized compounds. Uptake of Mito-
# Tracker Red (chloromethyl-X-rosamine) to the 786-O cell line was detected with high content
# imaging. […]
# CYP2C19 = target: T2, CYP2C19 (Homo sapiens, UniProt P33261); assay: Cytochrome P450 assay (P450-Glo), isoform 2C19; format: in vitro ADME; conditions: read-out: CYP 2C19 IC50
# T2 construct: purchased Promega; host or cells: baculovirus-infected insect cells
# T2 sequence (P33261 whole entry, canonical isoform): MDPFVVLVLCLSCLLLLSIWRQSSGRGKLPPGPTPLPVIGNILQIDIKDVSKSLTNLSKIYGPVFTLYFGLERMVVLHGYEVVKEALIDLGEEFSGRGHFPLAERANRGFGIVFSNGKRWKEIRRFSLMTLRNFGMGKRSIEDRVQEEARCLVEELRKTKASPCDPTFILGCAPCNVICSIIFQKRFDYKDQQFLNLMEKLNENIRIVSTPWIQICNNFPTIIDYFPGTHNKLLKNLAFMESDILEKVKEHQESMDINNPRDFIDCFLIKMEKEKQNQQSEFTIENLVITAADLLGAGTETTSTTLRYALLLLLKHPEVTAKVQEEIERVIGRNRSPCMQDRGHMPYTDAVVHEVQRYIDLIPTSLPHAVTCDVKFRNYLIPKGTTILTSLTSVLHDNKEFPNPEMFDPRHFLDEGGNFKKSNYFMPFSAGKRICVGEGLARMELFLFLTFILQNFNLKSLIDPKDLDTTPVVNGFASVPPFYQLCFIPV
# Source text: as §1, §2
# CYP2C9 = target: T3, CYP2C9 (Homo sapiens, UniProt P11712); assay: Cytochrome P450 assay (P450-Glo), isoform 2C9; format: in vitro ADME; conditions: read-out: CYP 2C9 IC50
# T3 construct: purchased Promega; host or cells: baculovirus-infected insect cells
# T3 sequence (P11712 whole entry, canonical isoform): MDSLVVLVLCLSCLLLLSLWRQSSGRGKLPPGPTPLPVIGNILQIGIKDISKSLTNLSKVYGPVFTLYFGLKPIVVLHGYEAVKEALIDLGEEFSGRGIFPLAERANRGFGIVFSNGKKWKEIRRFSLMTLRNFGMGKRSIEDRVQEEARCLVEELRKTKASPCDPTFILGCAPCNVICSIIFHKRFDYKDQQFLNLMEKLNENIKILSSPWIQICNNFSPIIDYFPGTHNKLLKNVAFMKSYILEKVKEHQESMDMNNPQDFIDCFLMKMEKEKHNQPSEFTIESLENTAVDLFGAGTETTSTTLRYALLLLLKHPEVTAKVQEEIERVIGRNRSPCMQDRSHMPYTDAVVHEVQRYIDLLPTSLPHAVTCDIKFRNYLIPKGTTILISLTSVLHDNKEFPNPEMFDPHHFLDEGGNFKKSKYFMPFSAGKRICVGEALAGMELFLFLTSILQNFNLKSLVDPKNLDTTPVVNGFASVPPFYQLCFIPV
# Source text: as §1, §2
# [1] = system: Trypanosoma brucei brucei L427 wild-type (WT) bloodstream forms; assay: Activity against T. brucei (resazurin-based assay); format: cell-based; conditions: Trypanosoma brucei
# Experimental: The parasites were grown in 5 mL T25 ventilated flasks containing complete HMI-9 medium. The medium was supplemented with 10% heat-inactivated FBS and 100 IU/mL penicillin/streptomycin. To maintain the cultures, subpassages were performed every 2 days at a concentration of 1 × 10^4 cells/mL.
# The efficacy of the compounds against Trypanosoma brucei brucei L427 wild-type (WT) bloodstream forms was assessed using a resazurin-based assay as described elsewhere. T. b. brucei L427 bloodstream forms were prepared at a cell density of 5 × 10^3 cells/mL in supplemented complete medium. Serial dilutions of the test compounds were prepared in a final volume of 100 μL, and 100 μL of the parasite suspension was added to each well containing the compound dilutions, resulting in a total volume of 200 μL per well. A dose–response curve for pentamidine was included as a quality control in each assay, and each condition was tested in duplicate. The plates were incubated for 72 h under the specified conditions for the parasite. After the incubation period, 20 μL of a 0.5 mM resazurin solution was added to each well, and the plates were incubated for an additional 4 h under the same conditions. Fluorescence was measured at an excitation wavelength of 544 nm and an emission wavelength of 590 nm using a Synergy 2 Multi-Mode Reader (Biotek, Winooski, VT, USA). The results were expressed as the percentage of parasite growth inhibition compared to the control (untreated parasites) and represented the average of at least three independent experiments.
# CYP3A4 = target: T4, CYP3A4 (Homo sapiens, UniProt P08684); assay: Cytochrome P450 assay (P450-Glo), isoform 3A4; format: in vitro ADME; conditions: read-out: CYP 3A4 IC50
# T4 construct: purchased Promega; host or cells: baculovirus-infected insect cells
# T4 sequence (P08684 whole entry, canonical isoform): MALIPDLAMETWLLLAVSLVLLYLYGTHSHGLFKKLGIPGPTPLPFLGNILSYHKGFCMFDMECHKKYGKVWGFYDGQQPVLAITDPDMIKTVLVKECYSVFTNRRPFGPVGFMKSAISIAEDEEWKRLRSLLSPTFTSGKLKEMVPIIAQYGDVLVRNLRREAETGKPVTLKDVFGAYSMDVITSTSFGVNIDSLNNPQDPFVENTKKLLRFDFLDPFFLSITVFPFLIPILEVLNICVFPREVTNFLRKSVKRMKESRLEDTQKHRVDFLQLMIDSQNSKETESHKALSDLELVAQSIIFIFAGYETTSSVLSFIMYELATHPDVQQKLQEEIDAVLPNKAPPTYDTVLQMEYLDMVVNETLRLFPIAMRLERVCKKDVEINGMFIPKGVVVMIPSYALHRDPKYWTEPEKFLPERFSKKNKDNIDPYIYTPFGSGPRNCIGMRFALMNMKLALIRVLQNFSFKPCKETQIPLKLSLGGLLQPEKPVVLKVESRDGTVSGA
# Source text: as §1, §2
# [2] = system: L. infantum intracellular amastigotes; assay: Activity against L. infantum intracellular amastigotes (luciferase); format: cell-based, Leishmania infantum; conditions: at 10 μM, intracellular amastigotes
# Experimental: Luciferase-expressing L. infantum (MHOM/MA/67/ITMAP-263) axenic amastigotes were cultured in MAA/20 medium at 37 °C with 5% CO2. The parasites were maintained in 5 mL T25 ventilated flasks and subcultured every 7 days at a concentration of 1 × 10^6 cells/mL.
# The activity against Leishmania infantum intracellular amastigotes was evaluated following the method described with modifications. THP-1 cells were differentiated into macrophages with PMA as described above. The cells were then infected with L. infantum axenic amastigotes expressing episomal luciferase at a macrophage-to-amastigote ratio of 1:10 for 4 h at 37 °C and 5% CO2. Noninternalized parasites were washed away, and compounds were added at various concentrations to a final volume of 100 μL. A dose–response curve for miltefosine was included in all assays as a quality control. Each condition was tested in quadruplicate. After 72 h of incubation, the medium was replaced with 100 μL of PBS, and 25 μL of Glo-lysis buffer from the Steady-Glo Luciferase Assay System (Promega, Madison, WI, USA) was added. The plates were agitated at 100 rpm for 10 min at room temperature. Subsequently, 30 μL of the Steady-Glo reagent (Promega, Madison, WI, USA) was added and incubated for 15 min in the dark under the same conditions. A total of 140 μL from each well was transferred to white-bottom 96-well plates, and luminescence intensity was measured using a Synergy 2 multimode reader (Biotek, Winooski, VT, USA). The antileishmanial effect was evaluated by comparison of the nontreated infected cells. The IC50 was determined (for miltefosine) through nonlinear regression analysis using GraphPad Prism version 8.1.1 for Windows (GraphPad Software, San Diego, CA, USA). Results represent the average of at least three independent experiments.
# [3] = Cytotoxicity against A549 cells (CellTiter-Glo); format: cell-based; conditions: human, A549 cells; read-out: A549 cytotoxicity GI50 (50% growth inhibition)
# Experimental: (§3) Cytotoxicity against A549 cells. The CellTiter-Glo assay from Promega was used. It detects the cellular ATP content, which is directly proportional to the number of viable cells. The A549 cells were obtained from DSMZ (German Collection of Microorganisms and Cell Cultures, Braunschweig, Germany) and cultured in Dulbecco’s modified Eagle medium (DMEM) with FCS (10% v/v), streptomycin (100 µg/mL), and penicillin G (100 U/mL)23. […]
# A549 cells = assay: Cytotoxicity against A549 cells (CellTiter-Glo); format: cell-based
# Experimental: as §3
smiles,measurement,setting,value
"Nc1nc2ccc(C(=O)N(CCc3ccc(Cl)c(Cl)c3)C3CC3)cc2s1 [Compound 1b, 2-amino-N-cyclopropyl-N-(3,4-dichlorophenethyl)benzo[d]thiazole-6-carboxamide]",CYP 1A2 IC50,CYP1A2,max
same,IC50,786-O cell line,0.6 µM
same,IC50,CYP2C19,4.7 µM
same,IC50,CYP2C9,5 µM
same,inhibition at 10 µM,"[1]; at 10 μM, read-out: T. brucei % cell growth inhibition",97%
same,EC50,[1]; read-out: 95% confidence interval for EC50 (T. brucei),4.45 to 5.88 µM
same,EC50,[1]; read-out: T. brucei EC50 (converted),5 µM
same,IC50,CYP3A4,0.7 µM
same,inhibition at 10 µM,"[2]; Leishmania infantum, read-out: L. infantum % cell growth inhibition",~50%
same,L. infantum % cell growth inhibition,[2],46±13%
same,GI50,[3],13.8 µM
same,A549 cytotoxicity LC50 (50% lethal concentration),A549 cells,max
same,A549 cytotoxicity TGI (total growth inhibition),A549 cells,54.6 µM
